According to patent US20220241223A1, “USE OF DISULFIRAM OR ITS DERIVATIVES FOR THE TREATMENT OF MITOCHONDRIAL DISEASES OR DYSFUNCTION” (Universite D'angers, priority 2019, published 2022):

Columns and labels:
[1] = in e.g. alcohol or chloroform; cited from earlier work
TNFα-induced cell death = conditions: Zhao et al. 2000; cited from earlier work
[2] = test system: neuronal MELAS cybrid cells; test: Lactate production in MELAS cybrid cells; type: cell-based, human; conditions: FIG. 8, MELAS cybrids
Protocol: FIG. 8: Determination of the maximal DSF concentration nontoxic for lactate production in neuronal MELAS cybrid cells. Range of DSF concentrations from 100 nM to 10 μM.
Lactate concentrations in the culture media were determined by spectrophotometry on a Hitachi-Roche apparatus following the recommendations of the manufacturer (Roche Diagnosis, Bale, Switzerland). Increased lactate concentration in supernatant of cell culture is witnessing glycolytic adaptation at the expense of mitochondrial function with reduced oxidative mitochondrial metabolism correlated with high concentrations and drug toxicity of DSF.

[3] = test system: mitochondrial complex I respiration in MELAS neuronal cybrid cells; test: Complex I linked respiration in permeabilized MELAS cybrid cells (Oroboros oxygraph); type: cell-based, human; conditions: 48 h exposure, low glucose medium (0.5 g/l)
Protocol: FIG. 6: Effect of DSF on mitochondrial complex I respiration in MELAS neuronal cybrid cells after 48 h exposure in low glucose medium (0.5 g/l).
FIG. 7: Effect of DSF at 10 nM after 48 h exposure on mitochondrial complex I (left) and complex IV (right) respiration in permeabilized MELAS neuronal cybrid cells, in low glucose medium (0.5 g/l).
Cellular oxygen consumption was measured at 37° C. in MELAS cybrid cells treated vs untreated mutant cells on a high-resolution oxygraph (Oroboros), as described elsewhere (Desquiret-Dumas et al., 2012).
Briefly treated and untreated mutant cells were trypsinized and the pellet was resuspended in the respiratory buffer (KH2PO4 10 mM, mannitol 300 mM, KCl 10 mM, MgCl2 5 mM, pH 7.4) containing 15 μg/million cells of digitonin. Cells were incubated at room temperature during 2.5 minutes and the digitonin action was stopped by adding five volumes of the respiration buffer supplemented with 1 mg/ml of BSA. […] The oxygen consumption was measured in state II (5 mM malate+pyruvate), state III (5 mM malate+pyruvate+1.5 mM ADP+0.5 mM NAD or 5 mM succinate+10 μM rotenone+1.5 mM ADP+0.5 mM NAD), state IV (8 μg/ml oligomycin) and maximal cytochrome c oxidase capacity (4 mM ascorbate+0.2 mM TMPD). After oxygraphic measurement, […] of cell suspension was removed from the chamber and the protein concentration was measured using bicinchoninic acid.

Δcoa6 cells = test: Growth in liquid non-fermentable medium with increasing DSF concentrations; type: cell-based; conditions: Saccharomyces cerevisiae, 40 h, read-out: toxic dose (IC50)
Protocol: (§1) Exponentially growing cells were inoculated in fresh non-fermentable YPG or YPE media supplemented, or not, with increasing DSF concentrations.
(§2) More precisely, the shy1-G137R and Δcoa6 cells have been grown for 40 h in liquid medium containing 2% glycerol and 0.1% galactose as carbon source and increasing concentrations of DSF (100 nM to 6 μM). The A29G and fmc1Δ cells have been grown for 48 h in liquid medium containing 2% glycerol as carbon source and increasing concentrations of DSF (50 nM to 5 μM). The taz1Δ and sym1Δ cells have been grown for 48 h in rich liquid medium containing 2% ethanol/0.2% galactose and 2% glycerol/2% ethanol as a carbon source, respectively, and increasing concentrations of DSF (100 nM to 9 μM).

[4] = test system: A29G, shy1 and coa6 yeast mutant strains; test: Yeast respiration, O2 consumption rate (Hansatech electrode); type: cell-based, Saccharomyces cerevisiae; conditions: FIG. 2; 200 nM for A29G, 300 nM for shy1 and coa6 mutants; with or without CCCP
Description: FIG. 2: Effect of DSF on O2 consumption rate (VO2, nmol O2 10^7 cell/min) of various yeast mutant strains, with or without CCCP. The data are the means±SEM of at least three independent experiments. The significance of variations among samples and controls was estimated using Anova multifactorial test: Tukey; (* P value<0.05; ** P<0.01; *** P<0.001; **** P<0.0001)).
The respiratory intensity corresponds to the amount of oxygen consumed relative to time and to the quantity of cells. It reflects the oxidative metabolism of cells. Oxygen consumption was measured using a Hansatech electrode. Cells were grown for 7-8 generations at 28° C. for 24 or 48 h in YPE medium (1% Yeast Extract, 0.5% Bacto Peptone, 2% ethanol) or galactose medium (1% Yeast Extract, 0.5% Bacto Peptone, 2% galactose) supplemented with either DMSO or DSF (200 nM for A29G; 300 nM for shy1 and coati mutants). […] 02 consumption was recorded with or without CCCP (Carbonyl Cyanide m-Chloro-Phenyl hydrazine; an uncoupling agent that dissipates the proton gradient that is established during the normal activity of the respiratory chain. In the presence of CCCP, the maintenance of an electrical potential across the inner mitochondrial membrane is impossible and respiration becomes maximal. The 02 consumption rate was calculated based on the linear part of 02 consumption.

sym1Δ cells = test: Growth in liquid non-fermentable medium with increasing DSF concentrations; type: cell-based, Saccharomyces cerevisiae; conditions: 48 h
Protocol: as §1, §2

taz1Δ cells = test: as above; type: cell-based, Saccharomyces cerevisiae; conditions: TAZ1 deletion, 48 h, 2% ethanol/0.2% galactose
Protocol: as §1, §2

fmc1Δ cells = test: as above; type: cell-based, Saccharomyces cerevisiae; conditions: 48 h
Protocol: as §1, §2

shy1-G137R cells = test: as above; type: cell-based, Saccharomyces cerevisiae; conditions: 40 h, 2% glycerol and 0.1% galactose
Protocol: as §1, §2

[5] = Saccharomyces cerevisiae, read-out: toxic dose (IC50)
[6] = suppression of respiratory growth defect

In the case of `CCN(CC)C(=S)SSC(=S)N(CC)CC` [DSF, 1-(diethylthiocarbamoyldisulfanyl)-N,N-diethyl-methanethioamide], the solubility [1] is given as “high solubility”, the “effect on TNFα-induced cell death” value (TNFα-induced cell death) is given as “inhibits TNFα-induced cell death” and the “DSF concentration with impact on lactate production (drug toxicity)” value ([2]; also at 3 μM or 10 μM) is given as ≥ 1 µM. For the same compound, the “DSF concentration with no impact on lactate production” value ([2]; range 100 nM to 10 μM) was “lower than 1 μM”, the “effect on complex I linked respiration” value ([3]; FIG. 6, various concentrations) was “increases complex I linked respiration” and the “effect on complex I linked respiration” value ([3]; FIG. 7, 10 nM, permeabilized cells) was “increases mitochondrial complex I”. For the same compound, the IC50 (Δcoa6 cells) was 3.1 µM, the “effect on yeast respiration (O2 consumption rate)” value [4] was “increases the yeast respiration” and the optimal concentration (sym1Δ cells; SYM1 deletion, suppression of respiratory growth defect, 2% glycerol/2% ethanol) was 1 µM. It also gave an IC50 (sym1Δ cells; [5]) of 9 µM, an IC50 (taz1Δ cells; Saccharomyces cerevisiae, DSF 100 nM to 9 μM, read-out: toxic dose (IC50)) of 9 µM and an optimal concentration (taz1Δ cells; [6]) of 1 µM. It also gave an optimal concentration (fmc1Δ cells; FMC1 deletion, suppression of respiratory growth defect, 2% glycerol) of 1 µM, an IC50 (fmc1Δ cells; [5]) of 6 µM and an IC50 (shy1-G137R cells; Saccharomyces cerevisiae, DSF 100 nM to 6 μM, read-out: toxic dose (IC50)) of 1.9 µM. The optimal concentration (shy1-G137R cells; [6]) was 300 nM.
